Measured values from patent US10336774B2, “N-azaspirocycloalkane substituted N-heteroaryl compounds and compositions for inhibiting the activity of SHP2” (NOVARTIS AG, priority 2014, dated 2019).
pIC50: −log10 of the molar value.

Molecular target: SHP2 (Homo sapiens (Human), UniProt Q06124)
Assay: SHP2 Allosteric Inhibition Assay
Assay type: biochemical
Conditions: 0.5 nM SHP2 activated with 0.5 μM peptide IRS1_pY1172(dPEG8)pY1222, surrogate substrate DiFMUP, fluorescence
Text: SHP2 Allosteric Inhibition Assay SHP2 is allosterically activated through binding of bis-tyrosyl-phorphorylated peptides to its Src Homology 2 (SH2) domains. The latter activation step leads to the release of the auto-inhibitory interface of SHP2, which in turn renders the SHP2 protein tyrosine phosphatase (PTP) active and available for substrate recognition and reaction catalysis. The catalytic activity of SHP2 was monitored using the surrogate substrate DiFMUP in a prompt fluorescence assay format. […] After 30-60 minutes incubation at 25° C., the surrogate substrate DiFMUP (Invitrogen, cat# D6567) was added to the reaction and incubated at 25° C. for 30 minutes. […] The inhibitor dose response curves were analyzed using normalized IC50 regression curve fitting with control based normalization.

pIC50	SMILES
5.27	Nc1nc(N2CC3(CCC3N)C2)cnc1Sc1cccc(Cl)c1Cl (racemic) [Example 8, 2-(6-amino-5-((2,3-dichlorophenyl)thio)pyrazin-2-yl)-2-azaspiro[3.3]heptan-5-amine]
7.25	Nc1nc(N2CCC3(CCC3N)CC2)cnc1Sc1cccc(Cl)c1Cl (racemic) [Example 14, 7-(6-amino-5-((2,3-dichlorophenyl)thio)pyrazin-2-yl)-7-azaspiro[3.5]nonan-1-amine]
6.42	Nc1nc(N2CCC3(CC2)CCC(F)(F)C3N)cnc1Sc1cccnc1C(F)(F)F (racemic) [Example 82, racemic-8-(6-amino-5-((2-(trifluoromethyl)pyridin-3-yl)thio)pyrazin-2-yl)-2,2-difluoro-8-azaspiro[4.5]decan-1-amine]
6.05	Nc1nc(N2CCC3(CC2)CCC(F)(F)[C@@H]3N)cnc1Sc1cccnc1C(F)(F)F (racemic) [Example 83a, (R) and (S)-8-(6-amino-5-((2-(trifluoromethyl)pyridin-3-yl)thio)pyrazin-2-yl)-2,2-difluoro-8-azaspiro[4.5]decan-1-amine]
6.51	Nc1nc(N2CCC3(CC2)CCC(F)(F)[C@@H]3N)cnc1Sc1cccnc1C(F)(F)F (racemic) [Example 83b, (R) and (S)-8-(6-amino-5-((2-(trifluoromethyl)pyridin-3-yl)thio)pyrazin-2-yl)-2,2-difluoro-8-azaspiro[4.5]decan-1-amine]
8.00	C[C@H]1CCC2(CCN(c3cnc(Sc4cccnc4C(F)(F)F)c(N)n3)CC2)[C@@H]1N (single isomer, unassigned) [Example 86a]
8.00	C[C@@H]1CCC2(CCN(c3cnc(Sc4cccnc4C(F)(F)F)c(N)n3)CC2)[C@@H]1N (single isomer, unassigned) [Example 86b]
8.00	NC(=O)c1nc(Sc2cccnc2C(F)(F)F)c(N)nc1N1CCC2(CCCC2N)CC1 (stereo in doubt) [Example 21, (S)-5-amino-3-(1-amino-8-azaspiro[4.5]decan-8-yl)-6-((2-(trifluoromethyl)pyridin-3-yl)thio)pyrazine-2-carboxamide]
6.54	Nc1nc(N2CCC3(CCCC3N)CC2)nnc1Sc1cccnc1C(F)(F)F (stereo in doubt) [Example 23, (S)-8-(5-amino-6-((2-(trifluoromethyl)pyridin-3-yl)thio)-1,2,4-triazin-3-yl)-8-azaspiro[4.5]decan-1-amine]
7.60	Nc1nc(N2CCC3(CCCC3N)CC2)cnc1Sc1cccc(Cl)c1Cl (stereo not shown) [Example 2]
8.00	Nc1nc(N2CCC3(CCC[C@H]3N)CC2)cnc1Sc1cccc(Cl)c1Cl [Example 3]
7.49	Nc1nc(N2CCC3(CCCCC3N)CC2)cnc1Sc1cccc(Cl)c1Cl (stereo not shown) [Example 4]
6.46	Nc1nc(N2CCC3(CC2)OCC[C@H]3N)cnc1Sc1cccnc1C(F)(F)F [Example 5]
7.13	Nc1nc(N2CCC3(CCCCC3N)CC2)cnc1-c1cccc(Cl)c1Cl (stereo not shown) [Example 6]
7.14	Nc1nc(N2CCC3(CCCC3N)CC2)cnc1-c1cccc(Cl)c1Cl (stereo not shown) [Example 7]
5.96	Nc1nc(N2CC3(CCC3N)C2)cnc1-c1cccc(Cl)c1Cl (stereo not shown) [Example 9]
7.80	Nc1cccc(Sc2ncc(N3CCC4(CC[C@@H]4N)CC3)nc2N)c1Cl [Example 15]
6.84	Nc1nc(N2CCC3(CCC3N)CC2)cnc1-c1cccc(Cl)c1Cl (stereo not shown) [Example 16]
5.45	Nc1nc(N2CCC3(CC2)C(N)CCS3(=O)=O)cnc1-c1cccc(Cl)c1Cl (stereo not shown) [Example 18]
5.39	Nc1nc(N2CCC3(CC2)C(N)CCS3(=O)=O)cnc1Sc1cccc(Cl)c1Cl (stereo not shown) [Example 19]
7.42	Nc1nc(N2CCC3(CC[C@@H]3N)CC2)cnc1Sc1cccnc1C(F)(F)F [Example 20, (S)-7-(6-amino-5-((2-(trifluoromethyl)pyridin-3-yl)thio)pyrazin-2-yl)-7-azaspiro[3.5]nonan-1-amine]
7.28	NC(=O)c1nc(Sc2cccnc2C(F)(F)F)c(N)nc1N1CCC2(CC[C@@H]2N)CC1 [Example 22]
5.56	Nc1nc(N2CCC3(CCC[C@@H]3N)CC2)ncc1Sc1cccnc1C(F)(F)F [Example 24, (S)-8-(4-amino-5-((2-(trifluoromethyl)pyridin-3-yl)thio)pyrimidin-2-yl)-8-azaspiro[4.5]decan-1-amine]
7.24	NC(=O)c1nc(Sc2ccnc(C(F)(F)F)c2Cl)c(N)nc1N1CCC2(CCC[C@H]2N)CC1 [Example 25, (R)-5-amino-3-(1-amino-8-azaspiro[4.5]decan-8-yl)-6-((3-chloro-2-(trifluoromethyl)pyridin-4-yl)thio)pyrazine-2-carboxamide]
7.85	Nc1nc(N2CCC3(CCC[C@H]3N)CC2)cnc1Sc1ccnc(N)c1Cl [Example 26, (R)-8-(6-amino-5-((2-amino-3-chloropyridin-4-yl)thio)pyrazin-2-yl)-8-azaspiro[4.5]decan-1-amine]
7.38	Nc1nc(N2CCC3(CC[C@@H]3N)CC2)cnc1Sc1ccnc(N)c1Cl [Example 27]

pIC50	SMILES
7.64	Nc1nc(N2CCC3(CCC[C@H]3N)CC2)cnc1Sc1ccncc1Cl [Example 28, (R)-8-(6-amino-5-((3-chloropyridin-4-yl)thio)pyrazin-2-yl)-8-azaspiro[4.5]decan-1-amine]
7.82	Nc1nc(N2CCC3(CCC[C@H]3N)CC2)cnc1Sc1cccnc1Cl [Example 29, (R)-8-(6-amino-5-((2-chloropyridin-3-yl)thio)pyrazin-2-yl)-8-azaspiro[4.5]decan-1-amine]
8.52	Nc1nc(N2CCC3(CCC[C@H]3N)CC2)cnc1Sc1ccnc(Cl)c1Cl [Example 30, (R)-8-(6-amino-5-((2,3-dichloropyridin-4-yl)thio)pyrazin-2-yl)-8-azaspiro[4.5]decan-1-amine]
7.55	Nc1nc(N2CCC3(CC[C@@H]3N)CC2)cnc1Sc1ccnc(Cl)c1Cl [Example 31, (S)-7-(6-amino-5-((2,3-dichloropyridin-4-yl)thio)pyrazin-2-yl)-7-azaspiro[3.5]nonan-1-amine]
7.96	Nc1cccc(Sc2ncc(N3CCC4(CCC[C@H]4N)CC3)nc2N)c1Cl [Example 32, (R)-8-(6-amino-5-((3-amino-2-chlorophenyl)thio)pyrazin-2-yl)-8-azaspiro[4.5]decan-1-amine]
8.30	Nc1nc(N2CCC3(CCC[C@H]3N)CC2)cnc1Sc1ccnc(F)c1Cl [Example 33, (R)-8-(6-amino-5-((3-chloro-2-fluoropyridin-4-yl)thio)pyrazin-2-yl)-8-azaspiro[4.5]decan-1-amine]
7.49	NC1=NCCC12CCN(c1cnc(Sc3cccnc3C(F)(F)F)c(N)n1)CC2 [Example 34, 8-(6-amino-5-((2-(trifluoromethyl)pyridin-3-yl)thio)pyrazin-2-yl)-2,8-diazaspiro[4.5]dec-1-en-1-amine]
6.63	Nc1nc(N2CCC3(CC2)OCCC3N)cnc1Sc1cccnc1C(F)(F)F (stereo not shown) [Example 35]
6.93	NC(=O)c1cc(Sc2cccnc2C(F)(F)F)c(N)nc1N1CCC2(CCC[C@H]2N)CC1 [Example 39, (R)-6-amino-2-(1-amino-8-azaspiro[4.5]decan-8-yl)-5-((2-(trifluoromethyl)pyridin-3-yl)thio)nicotinamide]
7.80	NC(=O)c1cccc(Sc2ncc(N3CCC4(CCC[C@H]4N)CC3)nc2N)c1Cl [Example 40, (R)-3-((3-amino-5-(1-amino-8-azaspiro[4.5]decan-8-yl)pyrazin-2-yl)thio)-2-chlorobenzamide]
8.15	Nc1nc(N2CCC3(CC2)C[C@@H](O)C[C@H]3N)cnc1Sc1ccnc(N)c1Cl [Example 41, (2R,4R)-4-amino-8-(6-amino-5-((2-amino-3-chloropyridin-4-yl)thio)pyrazin-2-yl)-8-azaspiro[4.5]decan-2-ol]
8.15	Nc1nc(N2CCC3(CC2)C[C@@H](O)C[C@H]3N)cnc1Sc1cccnc1C(F)(F)F [Example 42]
8.22	Nc1nc(N2CCC3(CC2)C[C@H](O)C[C@H]3N)cnc1Sc1cccnc1C(F)(F)F [Example 43]
6.87	Nc1nc(N2CCC3(CC2)C[C@@H](O)C[C@@H]3N)cnc1Sc1cccnc1C(F)(F)F [Example 44]
7.36	CO[C@@H]1C[C@@H](N)C2(CCN(c3cnc(Sc4ccnc(N)c4Cl)c(N)n3)CC2)C1 [Example 45]
7.42	CO[C@@H]1C[C@@H](N)C2(CCN(c3cnc(Sc4ccnc(Cl)c4Cl)c(N)n3)CC2)C1 [Example 46]
7.68	Nc1nc(N2CCC3(CC2)CC(F)(F)CC3N)cnc1Sc1cccnc1C(F)(F)F (stereo not shown) [Example 47]
8.05	CO[C@H]1C[C@@H](N)C2(CCN(c3cnc(Sc4cccnc4C(F)(F)F)c(N)n3)CC2)C1 [Example 48]
6.63	CN[C@@H]1C[C@H](O)CC12CCN(c1cnc(Sc3cccnc3C(F)(F)F)c(N)n1)CC2 [Example 49]
6.21	NC1=NC(=O)CC12CCN(c1cnc(Sc3cccnc3C(F)(F)F)c(N)n1)CC2 [Example 50]
8.00	Nc1cc(Sc2ncc(N3CCC4(CCC[C@H]4N)CC3)nc2N)c(Cl)cn1 [Example 51]
8.15	Nc1nc(N2CCC3(CC2)COC[C@H]3N)cnc1Sc1ccnc(N)c1Cl [Example 52]
6.53	Nc1nc(N2CCC3(CC2)COC[C@@H]3N)cnc1Sc1ccnc(N)c1Cl [Example 53]
8.00	Nc1nc(N2CCC3(CC2)COC[C@H]3N)cnc1Sc1cccnc1Cl [Example 54]
7.14	Nc1nc(N2CCC3(CC2)COC[C@H]3N)cnc1Sc1ccnnc1Cl [Example 55]
8.05	C[C@@H]1CCC2(CCN(c3cnc(Sc4ccnc(N)c4Cl)c(N)n3)CC2)[C@@H]1N [Example 56]
